Settings: 283.16 K, Liquid, Vibrating tube method

CCCC(=O)OCC(COC(=O)CCC)(COC(=O)CCC)COC(=O)CCC [pentaerythritol tetrabutyrate]
Settings | mass density [kg/m3]
6243.9 kPa | 1062.8
6250.7 kPa | 1062.7
6257.4 kPa | 1062.7
6265.2 kPa | 1062.8
6271.9 kPa | 1062.7
6278.8 kPa | 1062.7
6300.1 kPa | 1062.8
6308.2 kPa | 1062.8
6314.8 kPa | 1062.8
6321.7 kPa | 1062.7
6328.1 kPa | 1062.7
6336.4 kPa | 1062.8
6343.5 kPa | 1062.8
6350.2 kPa | 1062.8
6357.3 kPa | 1062.8
6365.3 kPa | 1062.7
6372 kPa | 1062.8
6379.3 kPa | 1062.6
6387.5 kPa | 1062.7
6394.3 kPa | 1062.7
6401.4 kPa | 1062.9
6408.5 kPa | 1062.8
6416.8 kPa | 1062.8
6423.7 kPa | 1062.9
6432.1 kPa | 1062.8
6439.2 kPa | 1062.8
6446.1 kPa | 1062.8
6453.2 kPa | 1062.8
6460.5 kPa | 1062.8
6469.1 kPa | 1062.8
6476 kPa | 1062.8
6483.3 kPa | 1062.8
6491.8 kPa | 1062.9
6498.7 kPa | 1062.8
6505.9 kPa | 1062.9
6513.4 kPa | 1062.8
6522.2 kPa | 1062.9
6529.1 kPa | 1062.9
6536.5 kPa | 1062.8
6543.9 kPa | 1062.9
6552.9 kPa | 1062.9
6560.5 kPa | 1062.9
6567.3 kPa | 1062.9
6575.9 kPa | 1062.8
6583.2 kPa | 1062.9
6590.8 kPa | 1062.9
6598.2 kPa | 1062.9
6606.8 kPa | 1062.9
6614.3 kPa | 1062.9
6621.5 kPa | 1062.9
6630.5 kPa | 1062.9
6638.3 kPa | 1062.9
6645.9 kPa | 1062.8
6653.6 kPa | 1062.9
6662.1 kPa | 1063
6669.8 kPa | 1062.9
6678.8 kPa | 1063
6685.9 kPa | 1063
6693.8 kPa | 1063
6701.4 kPa | 1063.1
6710.6 kPa | 1063
6718.2 kPa | 1062.9
6725.8 kPa | 1063
6735.1 kPa | 1062.8
6742.9 kPa | 1063.1
6750.9 kPa | 1063
6759.3 kPa | 1062.9
6766.9 kPa | 1062.9
6774.9 kPa | 1063
6784.2 kPa | 1063
6799.4 kPa | 1063
6808.2 kPa | 1063.1
6815.3 kPa | 1063
6822.2 kPa | 1063
6830 kPa | 1063.1
6835.8 kPa | 1063.1
6840.7 kPa | 1063.1
6845.5 kPa | 1063
6861.6 kPa | 1063
6890.3 kPa | 1063
6919.1 kPa | 1063
6948.8 kPa | 1063
6983.9 kPa | 1063.1
7013.2 kPa | 1063.2
7043.3 kPa | 1063.1
7073.9 kPa | 1063.2
7111.3 kPa | 1063.2
7141.9 kPa | 1063.2
7172.4 kPa | 1063.1
7231.8 kPa | 1063.2
7286.9 kPa | 1063.4
7348.1 kPa | 1063.3
7377.4 kPa | 1063.2
7488.6 kPa | 1063.5
7519.7 kPa | 1063.4
7758.9 kPa | 1063.6
7783.9 kPa | 1063.7
7814.3 kPa | 1063.5
7838.8 kPa | 1063.7
7861.2 kPa | 1063.7
7886.6 kPa | 1063.7
7908.5 kPa | 1063.6
7930.2 kPa | 1063.7
7952.2 kPa | 1063.7
7978.4 kPa | 1063.7
8000.3 kPa | 1063.7
8022.4 kPa | 1063.7
8048.9 kPa | 1063.8
8071.7 kPa | 1063.7
8094.5 kPa | 1063.8
8121.4 kPa | 1063.8
8144.2 kPa | 1063.9
8166.8 kPa | 1063.7
8194.2 kPa | 1063.8
8217.7 kPa | 1063.9
8241.7 kPa | 1063.9
8269.4 kPa | 1063.8
8316.5 kPa | 1063.8
8340.2 kPa | 1063.9
8369.1 kPa | 1063.9
8393.5 kPa | 1063.9
8418.1 kPa | 1063.9
8448 kPa | 1063.9
8472.3 kPa | 1064
8501.9 kPa | 1064.2
8527.3 kPa | 1064
8553.2 kPa | 1064.1
8580.4 kPa | 1064
8605.5 kPa | 1064
8631.2 kPa | 1064.1
8662.6 kPa | 1064
8688.3 kPa | 1064
8719.9 kPa | 1064.1
8746.3 kPa | 1064.2
8772.8 kPa | 1064.2
8799 kPa | 1064.1
8831.6 kPa | 1064.1
8858.5 kPa | 1064.2
8886.1 kPa | 1064.3
8920.4 kPa | 1064.2
8949 kPa | 1064.2
8976.4 kPa | 1064.3
9004.9 kPa | 1064.3
9038.9 kPa | 1064.3
9067 kPa | 1064.4
9095.4 kPa | 1064.4
9129.5 kPa | 1064.3
9159 kPa | 1064.5
9187.9 kPa | 1064.3
9222.8 kPa | 1064.4
9252.1 kPa | 1064.4
9282.2 kPa | 1064.4
9318.6 kPa | 1064.4
9349.3 kPa | 1064.5
9379.8 kPa | 1064.5
9411 kPa | 1064.4
9447.8 kPa | 1064.7
9478.5 kPa | 1064.7
9515.9 kPa | 1064.6
9547.2 kPa | 1064.6
9578.8 kPa | 1064.6
9616.9 kPa | 1064.6
9649.2 kPa | 1064.6
9681.5 kPa | 1064.6
9714.5 kPa | 1064.6
9755.2 kPa | 1064.8
9788.8 kPa | 1064.7
9830.3 kPa | 1064.6
9864.7 kPa | 1064.7
9896.4 kPa | 1064.8
9925.9 kPa | 1064.9
9960.2 kPa | 1064.8
9989.6 kPa | 1064.9
10025 kPa | 1064.8
10056 kPa | 1064.9
10087 kPa | 1064.9
10121 kPa | 1065
10145 kPa | 1065.1
10167 kPa | 1064.9
10189 kPa | 1064.9
10215 kPa | 1064.9
10238 kPa | 1065
10260 kPa | 1065.1
10278 kPa | 1064.9
10293 kPa | 1065.1
10311 kPa | 1065
10327 kPa | 1065
10342 kPa | 1065
10358 kPa | 1065
10377 kPa | 1065.1
10392 kPa | 1065.1
10408 kPa | 1065.2
10427 kPa | 1065
10443 kPa | 1065.1
10459 kPa | 1065.2
10478 kPa | 1065.1
10494 kPa | 1065.2
10510 kPa | 1065.3
10526 kPa | 1065.2
10545 kPa | 1065.3
10561 kPa | 1065.2
10578 kPa | 1065.2
10597 kPa | 1065.2
10613 kPa | 1065.3
10630 kPa | 1065.3
10646 kPa | 1065.2
10666 kPa | 1065.2
10682 kPa | 1065.2
10699 kPa | 1065.3
10719 kPa | 1065.4
10735 kPa | 1065.3
10755 kPa | 1065.2
10773 kPa | 1065.3
10789 kPa | 1065.4
10806 kPa | 1065.3
10827 kPa | 1065.4
10845 kPa | 1065.2
10863 kPa | 1065.3
10879 kPa | 1065.4
10900 kPa | 1065.5
10917 kPa | 1065.4
10934 kPa | 1065.4
10955 kPa | 1065.4
10972 kPa | 1065.4
10990 kPa | 1065.3
11010 kPa | 1065.4
11028 kPa | 1065.5
11046 kPa | 1065.4
11067 kPa | 1065.5
11086 kPa | 1065.4
11104 kPa | 1065.4
11122 kPa | 1065.5
11144 kPa | 1065.5
11162 kPa | 1065.7
11180 kPa | 1065.5
11202 kPa | 1065.6
11220 kPa | 1065.5
11238 kPa | 1065.6
11257 kPa | 1065.4
11279 kPa | 1065.6
11298 kPa | 1065.7
11316 kPa | 1065.6
11339 kPa | 1065.7
11479 kPa | 1065.6
11499 kPa | 1065.8
11522 kPa | 1065.7
11541 kPa | 1065.8
11561 kPa | 1065.7
11584 kPa | 1065.8
11604 kPa | 1065.8
11624 kPa | 1065.8
11643 kPa | 1065.8
11970 kPa | 1065.9
12038 kPa | 1066.1
12063 kPa | 1066.2
12084 kPa | 1066.1
12106 kPa | 1066.2
12132 kPa | 1066
12154 kPa | 1066.1
12175 kPa | 1066.1
12198 kPa | 1066.1
12224 kPa | 1066.2
12246 kPa | 1066.2
12268 kPa | 1066.1
12294 kPa | 1066.2
12316 kPa | 1066.3
12338 kPa | 1066.3
12365 kPa | 1066.3
12388 kPa | 1066.2
12410 kPa | 1066.3
12437 kPa | 1066.3
12460 kPa | 1066.2
12483 kPa | 1066.3
12510 kPa | 1066.3
12533 kPa | 1066.3
12556 kPa | 1066.3
12584 kPa | 1066.4
12607 kPa | 1066.4
12630 kPa | 1066.3
12659 kPa | 1066.4
12682 kPa | 1066.4
12705 kPa | 1066.3
12734 kPa | 1066.3
12758 kPa | 1066.4
12784 kPa | 1066.6
12809 kPa | 1066.5
12838 kPa | 1066.5
12862 kPa | 1066.4
12886 kPa | 1066.5
12911 kPa | 1066.6
12940 kPa | 1066.6
12965 kPa | 1066.6
12994 kPa | 1066.6

From the NIST ThermoML archive (doi:10.1021/je060271a)
